Source: publication PMC9979976 (Acta Crystallographica. Section F, Structural Biology …, 2023)

How the values were obtained:
[1] = target: T1, CATIII (chloramphenicol acetyltransferase III; CATIII+GG) (Escherichia coli, UniProt P00484); assay: X-ray crystal structure, […] A; assay type: binding
T1 construct: gene cat3; synthetic gene, full length without Met1; expressed in E. coli BL21(DE3); trimer

[2] = target: the molecule itself; assay: crystal structure; CATIII+GG at 24 mg/ml co-crystallised with 10 mM partially hydrolysed AcOCoA and saturating chloramphenicol; hanging drop, 46% PEG 400, 100 mM MgCl2, 0.1 M sodium citrate pH 5.5; space group P4(2)2(1)2, 1.68 A

O=C(N[C@H](CO)[C@H](O)c1ccc([N+](=O)[O-])cc1)C(Cl)Cl [chloramphenicol]
X-ray crystal structure, 1.68 A ([1]; co-crystallized at saturation with AcOCoA/OCoA, pH 5.5, 298 K, active site of each monomer): Our CATIII structure has clear electron density for chloramphenicol in each monomer

CC(C)(COP(=O)(O)OP(=O)(O)OC[C@H]1O[C@@H](n2cnc3c(N)ncnc32)[C@H](O)[C@@H]1OP(=O)(O)O)[C@@H](O)C(=O)NCCC(=O)NCCO [OCoA, oxa(dethia)CoA]
X-ray crystal structure, 1.68 A ([1]; minor species (about 20% in monomer A) mixed with AcOCoA, with chloramphenicol, pH 5.5, active site): Our structures here reveal a mixture of bound AcOCoA and OCoA

CC(=O)OCCNC(=O)CCNC(=O)[C@H](O)C(C)(C)COP(=O)(O)OP(=O)(O)OC[C@H]1O[C@@H](n2cnc3c(N)ncnc32)[C@H](O)[C@@H]1OP(=O)(O)O [AcOCoA, acetyl-oxa(dethia)CoA]
X-ray crystal structure, 1.68 A ([1]; co-crystallized with 10 mM AcOCoA (partly hydrolysed) and saturated chloramphenicol, pH 5.5, 298 K, active site, clearest in chain A, unreactive substrate analog): In monomer A we can clearly model the position of the acetyl group

B1: Chloramphenicol acetyltransferase III (enzyme)
chain: SGGNYTKFDVKNWVRREHFEFYRHRLPCGFSLTSKIDITTLKKSLDDSAYKFYPVMIYLIAQAVNQFDELRMAIKDDELIVWDSVDPQFTVFHQETETFSALSCPYSSDIDQFMVNYLSVMERYKSDTKLFPQGVTPENHLNISALPWVNFDSFNLNVANFTDYFAPIITMAKYQQEGDRLLLPLSVQVHHAVCDGFHVARFINRLQELCNSKLK
notes: cloning artifact left after TEV cleavage (Ser-Gly-Gly before Asn2); two Zn2+ modelled at contacts between trimers; also called CATIII; CATIII+GG; source: E. coli BL21(DE3), purified (HisTrap HP, TEV cleavage, second HisTrap HP); not shown: His6, N-terminal, cleaved
stoichiometry N [2]: 3
